{"source": "patent US8735443B2", "about": "“Method of treating diabetes-related vascular complications” (Kuwait University, priority 2008, dated 2014)", "key": {"[1]": {"test_system": "rat aortic rings", "experiment": "Acetylcholine-induced endothelium dependent relaxation of aortic rings in organ chamber", "assay_type": "in vivo", "conditions": "diabetic arteries; apocynin 3×10^−4 mol/l, Tiron 10 mmol/l", "protocol": "In the experiments, with regard to the determination of endothelium dependent relaxation (EDR) in the aorta, EDR in response to various concentrations of acetylcholine (Ach) (10^−9 to 10^−6 mol/l) was assessed in norepinephrine (10^−7 mol/l) preconstructed rat aortic rings using an organ chamber bath. The effects of the NAD(P)H oxidase inhibitor apocynin (3×10^−4 mol/l) and the O2^− scavenger Tiron (10 mmol/l) on Ach-induced responses of diabetic arteries were also considered."}, "[2]": {"test_system": "aortic tissue", "experiment": "Aortic superoxide production, lucigenin-enhanced chemiluminescence", "assay_type": "in vivo, rat", "conditions": "inhibitor added 60 min before; diphenylene iodonium 0.1 mM, apocynin 3 mM", "protocol": "In the study, with regard to measurement of vascular superoxide anion formation, O2^− concentration in aortic tissue was determined using a lucigenin-enhanced chemiluminescence method, and the resulting data were further confirmed by a cytochrome c-based technique. Segments of the thoracic aorta were placed into 2 ml Krebs-Henseleit buffer (KHB, pH 7.4), and prewarmed to 37° C. for one hour. Immediately before measurement, rings were transferred to scintillation vials containing KHB with 5 μmol/L lucigenin and the O2^− generated chemiluminescence was recorded for five minutes with a scintillation counter. The amount of O2^− produced was quantified using a standard curve of O2^− generation by xanthine/xanthine oxidase and the data are expressed as nmol per min, per mg, of wet weight. In some experiments, vessels were denuded of endothelium by gentle rubbing of the luminal surface, whereas in others, N^ω-nitro-L-arginine methyl ester (L-NAME) 0.1 mM, diphenylene iodonium 0.1 mM, or apocynin 3 mM were added 60 min before determining O2^− generation."}, "[3]": {"experiment": "Cell viability after hydrogen peroxide (Cell Counting Kit-8), diabetic fibroblasts", "assay_type": "cell-based, rat", "conditions": "female, Coto Kakizaki (diabetic), rat, primary dermal fibroblasts from diabetic rats (DFs), DFs, 16 hours, read-out: loss in cell viability", "description": "To determine the effect of α-lipoic acid on isolated cells from normal and diabetic rats, primary rat fibroblasts were derived from dorsal skin biopsies performed on four diabetic Coto Kakizaki rats (DFs) and four age-matched (12-14 months) and sex-matched (female) Wistar control rats (CFs). After sterilization in povidine solution, the rat skin was washed in sterile water and rinsed in 70% ethanol in phosphate-buffered saline (PBS). The epidermis and dermis were separated following overnight incubation in 0.25% Trypsin/EDTA at 4° C. Samples were washed, diced and digested for thirty minutes at 37° C. in collagenase type I (250 U/ml) dissolved in Dulbecco's modified Eagle medium (DMEM; Invitrogen) containing penicillin (100 U/ml), 2 mM L-glutamine and 26 mM HEPES. After collagenase treatment, the cells were dislodged, centrifuged and resuspended in medium supplemented with 10% fetal bovine serum. The cells were grown under standard conditions, and the medium was changed every three to four days. Control and diabetic fibroblasts were grown under normo-glycemic conditions (5.5 mM glucose) and used in experiments at passage 3 to 5.\nFibroblasts were seeded at 1×10^4 cells/well on a 96-well plate. After a 24 hour incubation period, the cells were exposed to various concentrations of HP in serum-free medium at 37° C. for 2 hours [lactate dehydrogenase (LDH), a marker for necrotic cell death], or for 16 hours (cell viability). Quantification of cell viability was assessed using a Cell Counting Kit-8 (Dojindo, Kumamoto, Japan). The values obtained were normalized to the vehicle-treated cells. To measure the rate of necrotic cell death, an LDH release assay was performed using a CytoTox-ONE Homogeneous Membrane Integrity Assay kit (Promega). Expression of Nrf2 was inhibited by small-interfering RNA (siRNA) oligonucleotides. The sequences were designed and synthesized by Qiagen. The best silencing efficiency was obtained by incubating 2.0×10^5 cells/well in a 6-well plate with complexes formed by 5 nM siRNA (1 μl) and 9 μL of HiPerfect transfection reagent (Qiagen) dissolved in 90 μl medium, according to the manufacturer's instructions. The transfection was achieved by adding 0.9 ml of medium to the seeded cells followed by 100 μl of siRNA/HiPerfect complex. Knock-out efficiency was verified by real-time PCR and Western blot. Twenty-four hours later, 1 ml of fresh medium was added; 48 hr after transfection the cells were exposed to either vehicle or lipoic acid at a concentration of 500 μM."}, "[4]": {"test_system": "cultured arteries", "experiment": "Cultured arteries of non-diabetic control animals exposed to TNF-α", "design": "species or system rat", "conditions": "arteries of non-diabetic control animals exposed to TNF-α"}, "[5]": {"test_system": "NAD(P)H oxidase", "experiment": "NAD(P)H oxidase activity in aortic homogenates (lucigenin photoemission)", "assay_type": "biochemical, rat", "conditions": "inhibitor added to tissue homogenate", "method": "Determination of NAD(P)H oxidase activity in the aorta was determined based on superoxide induced lucigenin photoemission. Enzyme assays were carried out in a final volume of 1 ml. containing (in mM) 50 phosphate buffer; pH 7.0, 1 EGTA, 150 sucrose, 0.5 lucigenin, 0.1 NAD(P)H and tissue homogenate. Enzyme reactions were initiated with the addition of lucigenin. Photoemission, expressed in terms of relative light units (RLU), was measured every 5 min. using a luminometer. All assays were carried out in the dark at room temperature."}}}
{"compound": "O=S(=O)(O)c1cc(O)c(O)c(S(=O)(=O)O)c1", "note": "[tiron, Tiron]", "values": [{"measurement": "Ach-induced relaxation in diabetic arteries", "setting": "[1]", "value": "improved"}]}
{"compound": "COc1cc(C(C)=O)ccc1O", "note": "[apocynin]", "values": [{"measurement": "O2− production of aorta of GK diabetic rats", "setting": "[2]", "value": "inhibited"}, {"measurement": "Ach-induced relaxation in diabetic arteries", "setting": "[1]", "value": "improved"}]}
{"compound": "OO", "note": "[HP, hydrogen peroxide]", "values": [{"measurement": "cytotoxicity at 16 h, 37.5 uM", "setting": "[3]; 37.5 uM HP", "value": 17, "unit": "%"}, {"measurement": "cytotoxicity at 16 h, 50 uM", "setting": "[3]; 50 uM HP", "value": 55, "unit": "%"}, {"measurement": "cytotoxicity at 16 h, 75 uM", "setting": "[3]; 75 uM HP", "value": 78, "unit": "%"}]}
{"compound": "TNF-α", "values": [{"measurement": "Ach-induced vasorelaxation", "setting": "[4]", "value": "impaired"}, {"measurement": "caspase 3/7 activity", "setting": "[4]", "value": "elevated"}, {"measurement": "levels of DNA fragmentation", "setting": "[4]", "value": "elevated"}, {"measurement": "rate of O2− generation", "setting": "[4]", "value": "elevated"}]}
{"compound": "c1ccc2c(c1)[I+]c1ccccc1-2", "note": "[diphenyleneiodonium]", "values": [{"measurement": "O2− production of aorta of GK diabetic rats", "setting": "[2]", "value": "inhibited"}, {"measurement": "reduction of production of O2− in the homogenate", "setting": "[5]", "value": "> 95", "unit": "%"}]}
